Read-outs that look alike come from different tables or passages of the source.

In this experiment the target is T1, human RXFP1 (Homo sapiens, UniProt Q9HBX9).
T1 construct: expressed in transfected cells
T1 sequence (Q9HBX9 1-757): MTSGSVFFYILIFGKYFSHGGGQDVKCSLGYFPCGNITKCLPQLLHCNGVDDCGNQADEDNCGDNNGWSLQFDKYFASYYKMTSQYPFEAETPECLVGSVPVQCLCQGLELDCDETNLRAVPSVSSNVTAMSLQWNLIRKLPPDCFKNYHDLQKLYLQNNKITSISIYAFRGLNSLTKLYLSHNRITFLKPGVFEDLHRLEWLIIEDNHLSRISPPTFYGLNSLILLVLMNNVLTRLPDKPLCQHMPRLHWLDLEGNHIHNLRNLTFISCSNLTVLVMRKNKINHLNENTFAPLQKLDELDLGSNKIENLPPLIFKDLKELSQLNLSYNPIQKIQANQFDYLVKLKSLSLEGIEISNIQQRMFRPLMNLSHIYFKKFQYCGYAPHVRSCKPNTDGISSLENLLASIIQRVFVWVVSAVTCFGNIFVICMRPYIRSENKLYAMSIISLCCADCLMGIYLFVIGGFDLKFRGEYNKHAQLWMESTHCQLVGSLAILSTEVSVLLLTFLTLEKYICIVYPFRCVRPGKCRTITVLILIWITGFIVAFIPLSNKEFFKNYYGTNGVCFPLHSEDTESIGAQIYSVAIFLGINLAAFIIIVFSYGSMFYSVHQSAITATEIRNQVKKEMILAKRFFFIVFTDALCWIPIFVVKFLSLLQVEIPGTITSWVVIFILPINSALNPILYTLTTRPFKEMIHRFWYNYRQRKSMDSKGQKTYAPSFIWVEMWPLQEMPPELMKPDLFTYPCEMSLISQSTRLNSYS
Kind of experiment: RXFP1 cAMP assay (hRXFP1 HEK293 cAMP assay, HTRF). It is filed as cell-based. In short, it runs like this:
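HEK293 cells stably expressing human RXFP1 (1500 cells/well) in HBSS/20 mM HEPES/0.05% BSA/0.5 mM IBMX. Compounds were tested at 0.010 nM–50 μM final (2% DMSO) for 30 min at room temperature. cAMP was measured by HTRF and values derived by 4-parameter logistic fit.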
(In general: Changes in cAMP serve as a functional read-out for many G protein-coupled receptors.)

Setting [1] is: HEK293 cells stably expressing human RXFP1, 30 min at room temperature, read-out: cAMP hRXFP1 HEK293 Assay EC50.
Where [2] appears, read: cAMP hRXFP1 HEK293 Assay EC50, HEK293 cells stably expressing human RXFP1, 30 min at room temperature.

As a reminder, the EC50 is the concentration giving half of the maximal effect. With `COc1ccc(-c2cc(C(=O)O)ccc2F)cc1C(=O)N[C@@H]1C2CCC(/C2=C/C2CC2)[C@@H]1C(=O)NC1CC2(CCC2)C1` (stereo partly shown) [compound 301], the EC50 under setting [1] is 850 nM.
Same read-out and setting: the value for `CCCC/C=C1\C2CCC1[C@H](C(=O)Nc1ccc(F)c(C(F)(F)F)c1)[C@@H]2NC(=O)c1cc(C2=NOC(CO)C2)ccc1OC` (stereo partly shown) [compound 383] was 127 nM; that for `COc1ccc(C2=NOC3C(O)CCC23)cc1C(=O)N[C@H]1[C@@H](C(=O)Nc2ccc(F)c(C(F)(F)F)c2)[C@H]2CC[C@@H]1/C2=C\C1CC1` (single isomer, unassigned) [compound 483] was 7.3 nM.
Take `COc1ccc(C2=NOC(CC(=O)O)C2)cc1C(=O)N[C@@H]1C2CCC(/C2=C/C2CC2)[C@@H]1C(=O)Nc1ccc(F)c(C(F)(F)F)c1` (stereo partly shown) [compound 392]: under setting [1], the EC50 came to 50 nM.
Regarding `COc1cc(F)c(C2=NOC3COCC23)cc1C(=O)N[C@@H]1C2CCC(/C2=C/C2CC2)[C@@H]1C(=O)Nc1ccc(F)c(C(F)(F)F)c1` (stereo partly shown) [compound 420], the EC50 under setting [1] is 1 nM.
For `COc1ccc(C2=NOC3CC(CO)CC23)cc1C(=O)N[C@H]1[C@@H](C(=O)N[C@H](C)C2(C)CC2)[C@H]2CC[C@@H]1/C2=C\c1ccncn1` (stereo partly shown) [compound 807], under setting [1], the EC50 stood at 2.1 nM.
As for `COc1ccc(-c2ccc(C(CC(=O)O)C(F)(F)F)cc2F)cc1C(=O)N[C@H]1[C@@H](C(=O)Nc2ccc(F)c(C(F)(F)F)c2)[C@H]2CC[C@@H]1/C2=C\C1CC1` (stereo partly shown) [compound 884], the EC50 under setting [1] was 1 nM.
On to `COc1cc(F)c(F)cc1C(=O)N[C@@H]1C2CCC(/C2=C2\CCc3ccccc32)[C@@H]1C(=O)Nc1ccc(F)c(C(F)(F)F)c1` (stereo partly shown) [compound 72], for which the EC50 under setting [1] turned out to be 250 nM.
Regarding `CN(C)c1c(Cl)cc(C2=NOC3COCC23)cc1C(=O)N[C@H]1[C@@H](C(=O)Nc2ccc(F)c(C(F)(F)F)c2)[C@H]2CC[C@@H]1/C2=C\C1CC1` (single isomer, unassigned) [compound 474], the EC50 under setting [1] turned out to be 5 nM.
The same measure, in the same setting: the value for `COc1ccc(C2=NOC3CC(C(C)(C)O)CC23)cc1C(=O)N[C@H]1[C@@H](C(=O)Nc2ccc(F)c(C(F)(F)F)c2)[C@H]2CC[C@@H]1/C2=C\C1CC1` (single isomer, unassigned) [compound 464] was 3.2 nM; that for `COc1ccc(C2=NO[C@H]3C[C@H](CO)C[C@@H]23)cc1C(=O)N[C@H]1[C@@H](C(=O)Nc2ccc(F)c(C(F)(F)F)c2)[C@H]2CC[C@@H]1/C2=C\CC(O)C(F)(F)F` (stereo partly shown) [compound 826] was 3 nM.
`COc1ccc(N2CCCS2(=O)=O)cc1C(=O)N[C@@H]1C2CCC(/C2=C/C2CC2)[C@@H]1C(=O)Nc1ccc(F)c(C(F)(F)F)c1` (stereo partly shown) [compound 372]: the EC50 under setting [1] worked out at 12 nM.
Turning to `COc1ccc(-c2cc([C@H](C)O)on2)cc1C(=O)N[C@H]1[C@@H](C(=O)Nc2ccc(F)c(C(F)(F)F)c2)[C@H]2CC[C@@H]1/C2=C\C1CC1` [compound 465], the EC50 under setting [1] was found to be 3.5 nM.
Regarding `COc1ccc(C2=NOC(CCO)C2)cc1C(=O)N[C@@H]1C2CCC(/C2=C/C2CCC2)[C@@H]1C(=O)Nc1ccc(F)c(C(F)(F)F)c1` (stereo partly shown) [compound 400], under setting [1], the EC50 worked out at 31 nM.
As to `COc1cc(F)c(F)cc1C(=O)N[C@@H]1C2CCC(/C2=C/c2cccc(OCC(F)(F)F)c2)[C@@H]1C(=O)Nc1ccc(F)c(C(F)(F)F)c1` (stereo partly shown) [compound 28], the EC50 under setting [1] turned out to be 400 nM.
Same read-out and setting: the value for `COc1cc(F)c(F)cc1C(=O)N[C@@H]1C2CCC(/C2=C/C=C/CCCc2ccccc2)[C@@H]1C(=O)Nc1ccc(F)c(C(F)(F)F)c1` (stereo partly shown) [compound 37] was 15 nM; that for `COc1ccc(Br)cc1C(=O)N[C@@H]1C2CCC(/C2=C\c2ccccc2)[C@@H]1C(=O)Nc1ccc(F)c(C(F)(F)F)c1` (stereo partly shown) [Example 78] was 1900 nM; that for `CCOC(=O)Cn1cc(-c2ccc(OC)c(C(=O)N[C@@H]3C4CCC(/C4=C/c4ccccc4)[C@@H]3C(=O)Nc3ccc(F)c(C(F)(F)F)c3)c2)cn1` (stereo partly shown) [compound 339] was 67 nM.
Same read-out and setting: the value for `COc1ccc(-c2cc(C(=O)O)ccc2F)cc1C(=O)N[C@@H]1C2CCC(/C2=C/C2CC2)[C@@H]1C(=O)NCCc1cccc(C(F)(F)F)c1` (stereo partly shown) [compound 302] was 889 nM; that for `COC(=O)C1CC2ON=C(c3ccc(OC)c(C(=O)N[C@H]4[C@@H](C(=O)Nc5ccc(F)c(C(F)(F)F)c5)[C@H]5CC[C@@H]4/C5=C\C4CC4)c3)C2C1` (stereo partly shown) [compound 512] was 15.7 nM.
Turning to `COc1ccc(-c2cc([C@H](OC(=O)NC3CC3)C(F)(F)F)ccc2F)cc1C(=O)N[C@H]1[C@@H](C(=O)Nc2ccc(F)c(C(F)(F)F)c2)[C@H]2CC[C@@H]1/C2=C\CC(C)C` [compound 929], the EC50 under setting [1] came out at 1.6 nM.
As to `COc1ccc(C2=NOC3CC(C(O)C(F)(F)F)CC23)cc1C(=O)N[C@H]1[C@@H](C(=O)Nc2ccc(F)c(C(F)(F)F)c2)[C@H]2CC[C@@H]1/C2=C\C1CC1` (stereo partly shown) [compound 848], the concentration giving a half-maximal response (EC50) under setting [1] is 2.5 nM.
Consider `COc1ccc(C2=NOC3COCC23)cc1C(=O)N[C@H]1[C@@H](C(=O)NCCc2cccc(C)c2)[C@H]2CC[C@@H]1/C2=C\C1CC1` (stereo partly shown) [compound 650], for which the EC50 under setting [1] was 262 nM.
`COc1ccc(-c2cc(C(=O)O)ccc2F)cc1C(=O)N[C@H]1[C@@H](C(=O)Nc2ccc(F)c(C(F)(F)F)c2)[C@H]2CC[C@@H]1/C2=C/c1ccccc1` [compound 91]: the midpoint of the response under setting [2], the EC50, lay at 360 nM.
Regarding `COc1ccc(C2=NOC(C3(O)CCCC3)C2)cc1C(=O)N[C@H]1[C@@H](C(=O)Nc2ccc(F)c(C(F)(F)F)c2)[C@H]2CC[C@@H]1/C2=C\C1CC1` (single isomer, unassigned) [compound 488], under setting [1], the EC50 amounted to 8.2 nM.
For the compound `COc1ccc(-c2noc(CCO)c2CCO)cc1C(=O)N[C@H]1[C@@H](C(=O)Nc2ccc(F)c(C(F)(F)F)c2)[C@H]2CC[C@@H]1/C2=C\C1CC1` [compound 531], under setting [1], the EC50 was determined as 22.7 nM.
Consider `COc1ccc(-c2cc(C(=O)O)ccc2F)cc1C(=O)N[C@@H]1C2CCC(/C2=C/C2CC2)[C@@H]1C(=O)NC1CCc2ccccc2C1` (stereo partly shown) [compound 299], for which the EC50 under setting [1] worked out at 227 nM.
On to `COc1ccc(C2=NOC3CC(C)(O)CC23)cc1C(=O)N[C@H]1[C@@H](C(=O)Nc2ccc(F)c(C(F)(F)F)c2)[C@H]2CC[C@@H]1/C2=C\C1CC1` (stereo partly shown) [compound 858], for which the EC50 under setting [1] is 1.3 nM.
Take `COc1ccc(C2CCOCC2)cc1C(=O)NC1C2CCC(/C2=C/C2CCC2)C1C(=O)Nc1ccc(F)c(C(F)(F)F)c1` (stereo not shown) [compound 369]: the EC50 under setting [1] is 65 nM.
For `COc1ccc(C2=NOC3(CCOCC3)C2)cc1C(=O)N[C@@H]1C2CCC(/C2=C/C2CC2)[C@@H]1C(=O)Nc1ccc(F)c(C(F)(F)F)c1` (stereo partly shown) [compound 402], under setting [1], the EC50 is 70 nM.
`COc1ccc(-c2cc(CC(=O)O)ccc2F)cc1C(=O)N[C@@H]1C2CCC(/C2=C/c2ccccc2)[C@@H]1C(=O)Nc1ccc(F)c(C(F)(F)F)c1` (stereo partly shown) [compound 187]: the EC50 under setting [1] amounted to 19 nM.
Consider `COc1ccc(C2=NOC3CN(C(=O)OC(C)(C)C)CC23)cc1C(=O)N[C@@H]1C2CCC(/C2=C/C2CC2)[C@@H]1C(=O)Nc1ccc(F)c(C(F)(F)F)c1` (stereo partly shown) [compound 435], for which the EC50 under setting [1] is 49 nM.
As for `COCCOc1ccc(C2=NOC3COCC23)cc1C(=O)N[C@H]1[C@@H](C(=O)Nc2ccc(F)c(C(F)(F)F)c2)[C@H]2CC[C@@H]1/C2=C\C1CC1` (single isomer, unassigned) [compound 644], the EC50 under setting [1] came to 238 nM.
`CC/C=C1\C2CCC1[C@H](C(=O)Nc1ccc(F)c(C(F)(F)F)c1)[C@@H]2NC(=O)c1cc(-c2cc(C(=O)NC)ccc2F)ccc1OC` (stereo partly shown) [compound 156]: the EC50 under setting [1] stood at 11 nM.
Consider `COc1cc(F)c(F)cc1C(=O)N[C@@H]1C2CCC(C2=C(C)C)[C@]1(F)C(=O)Nc1ccc(F)c(C(F)(F)F)c1` (stereo partly shown) [Example 51], for which the 50% effective concentration (EC50) under setting [1] was 790 nM.
Same read-out and setting: in the case of `COc1c(F)cc(-c2cnc3n2CC(O)CC3)cc1C(=O)N[C@H]1[C@@H](C(=O)Nc2ccc(F)c(C(F)(F)F)c2)[C@H]2CC[C@@H]1/C2=C\C1CC1` (stereo partly shown) [compound 753] it was 3.3 nM.
In turn, `COc1ccc(-c2ccc(C(=O)O)cc2)cc1C(=O)N[C@H]1[C@@H](C(=O)Nc2ccc(F)c(C(F)(F)F)c2)[C@H]2CC[C@@H]1C2=C(C)C` [compound 83] showed an EC50 under setting [2] of 66 nM.
For the compound `COc1ccc(C2=NOC(C(C)(C)O)C2)cc1C(=O)N[C@H]1[C@@H](C(=O)Nc2ccc(F)c(C(F)(F)F)c2)[C@H]2CC[C@@H]1/C2=C\C1CC1` (single isomer, unassigned) [compound 573], the EC50 under setting [1] is 67.4 nM.
Regarding `COc1c(F)cc(C2=NOC3CC(CO)CC23)cc1C(=O)N[C@H]1[C@@H](C(=O)N[C@H](C)C2(C)CC2)[C@H]2CC[C@@H]1/C2=C\C1CC(F)(F)C1` (stereo partly shown) [compound 813], the EC50 under setting [1] was found to be 1 nM.
`COc1ccc(C2=NOC3CC(O)(C(F)(F)F)CC23)cc1C(=O)N[C@H]1[C@@H](C(=O)Nc2ccc(F)c(C(F)(F)F)c2)[C@H]2CC[C@@H]1/C2=C\C1CC1` (stereo partly shown) [compound 864]: under setting [1], the EC50 was found to be 3.8 nM.
